From patent publication US10022461B2, “Pyrrolo[2,3-C]pyridines as imaging agents for neurofibrilary tangles” (MERCK SHARP & DOHME CORP., priority 2014, dated 2018) come the findings set out here.

Chain of tau (P10636 2-758 limits assumed): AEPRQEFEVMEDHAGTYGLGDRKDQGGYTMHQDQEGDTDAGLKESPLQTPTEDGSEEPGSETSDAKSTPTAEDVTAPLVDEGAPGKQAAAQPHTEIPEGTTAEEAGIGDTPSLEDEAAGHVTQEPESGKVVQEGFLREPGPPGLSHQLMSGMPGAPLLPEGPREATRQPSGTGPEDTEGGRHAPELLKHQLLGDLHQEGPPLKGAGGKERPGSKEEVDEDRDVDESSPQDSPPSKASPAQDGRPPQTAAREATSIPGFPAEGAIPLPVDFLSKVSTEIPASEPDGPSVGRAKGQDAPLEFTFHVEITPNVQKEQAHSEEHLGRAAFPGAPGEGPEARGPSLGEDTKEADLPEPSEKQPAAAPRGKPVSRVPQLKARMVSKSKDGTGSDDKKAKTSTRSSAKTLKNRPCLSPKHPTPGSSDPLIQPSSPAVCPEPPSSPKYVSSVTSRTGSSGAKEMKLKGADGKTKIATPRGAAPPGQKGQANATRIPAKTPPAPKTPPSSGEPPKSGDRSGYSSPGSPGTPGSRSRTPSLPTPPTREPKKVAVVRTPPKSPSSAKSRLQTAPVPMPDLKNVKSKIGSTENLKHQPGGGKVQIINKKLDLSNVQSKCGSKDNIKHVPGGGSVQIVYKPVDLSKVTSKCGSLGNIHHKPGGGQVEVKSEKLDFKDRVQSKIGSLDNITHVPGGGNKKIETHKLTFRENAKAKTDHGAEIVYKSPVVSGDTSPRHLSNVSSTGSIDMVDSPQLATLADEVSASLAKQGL

In the first assay the target is tau (Homo sapiens, UniProt P10636). In words: displacement tau binding assay in AD brain homogenates with [^3H]-6. Particulars: Table 1, displacement of [^3H]-6 (0.25 nM). The method, then:
The frozen human brain samples of Alzheimer's disease (AD) were purchased from Analytic Biological Services Inc. They were postmortem tissue from donors with clinical diagnosis of AD. As much of the white matter was dissected out of the frontal cortex in order to enrich the tissue preparations for gray matter. Brain homogenates of gray matter enriched frontal cortex were prepared by homogenizing the tissue in ice cold Phosphate Buffered Saline (PBS), pH 7.4 at 80 mg wet weight tissue per 1 mL for 45 seconds at 4° C. on setting 16 of Polytron. The homogenate was further diluted with ice cold PBS to 30 mg wet weight tissue per 1 mL and homogenized for an additional minute as described above. Homogenates were aliquoted in 5 ml/tube and store at −70° C. until use. […] Brain homogenates were diluted to 0.5 mg/mL from original 30 mg/mL volume in Assay Buffer, and 200 μl were added to the assay plate for a final concentration of 100 μg wet weight/assay tube. [^3H]-6 was prepared at […] final concentration in Assay Buffer plus 20% DMSO and 25 μl was added to the assay plate for final assay concentration of 0.25 nM. The assay plate was incubated at room temperature (25° C.) for 90 minutes. […] Filter plates were dried for 1 hour in a vacuum oven and 50 μl/well MicroScint-20 were added. Plates were counted 1 min per well by Packard Topcount. Total amount of radioligand used in the assay was determined by counting 25 μl of 10× ligand stock. […] Tau Ki data for representative compounds of the invention are found in Table 1.
Usually Ki stands for a measure of affinity in units of concentration, obtained from inhibition or displacement. A higher Ki goes with a looser hold on the target. `FCCCNc1ccc(-n2ccc3ccncc32)nc1` [Compound 35, N-(3-fluoropropyl)-6-(1H-pyrrolo[2,3-c]pyridin-1-yl)pyridin-3-amine] returned a Ki of 3.19 nM.
The compound `Cc1cc(-n2ccc3ccncc32)ncc1C#CCF` [Compound 51] displayed a Ki of 0.87 nM.
In turn, `CC#Cc1cnc(-n2ccc3ccncc32)cc1OC` [Compound 33, 1-(4-methoxy-5-(prop-1-ynyl)pyridin-2-yl)-1H-pyrrolo[2,3-c]pyridine] came in with a Ki of 3.34 nM. This Ki lies about 3.8-fold higher than the previous one.
The same measure, in the same setting: under `COc1cccc2cnc(-n3ccc4ccncc43)cc12` [Compound 70] stands 44.4 nM; under `Nc1ccc(-c2ccc(-n3ccc4ccncc43)nc2)cn1` [Compound 100], 1.06 nM.
As for `FCOc1ccc2cc(-n3ccc4ccncc43)ncc2c1` [Compound 17, 7-(fluoromethoxy)-3-(1H-pyrrolo[2,3-c]pyridin-1-yl)isoquinoline], the affinity, expressed as Ki, was 0.43 nM.
For `FCCn1ccc(-c2ccc(-n3ccc4ccncc43)nc2)n1` [Compound 104, 1-(5-(1-(2-fluoroethyl)-1H-pyrazol-3-yl)pyridin-2-yl)-1H-pyrrolo[2,3-c]pyridine], the affinity corresponds to a Ki of 1.71 nM.
`Nc1c(F)ccc2cnc(-n3ccc4ccncc43)cc12` [Compound 18, 6-fluoro-3-(1H-pyrrolo[2,3-c]pyridin-1-yl)isoquinolin-5-amine]: the affinity corresponds to a Ki of 0.43 nM.
The compound `Nc1cccc2cc(-n3ccc4ccncc43)ncc12` [Compound 59] displayed a Ki of 0.33 nM.
The same measure, in the same setting: the same measure for `CC#Cc1cnc(-n2ccc3ccncc32)cc1CO` [Compound 21-4, (5-(prop-1-ynyl)-2-(1H-pyrrolo[2,3-c]pyridin-1-yl)pyridin-4-yl)methanol]: 3.35 nM; for `Fc1ccc2nc(-n3ccc4ccncc43)ncc2c1` [Compound 62]: 2.55 nM.
The compound `Ic1ccc2cnc(-n3ccc4ccncc43)cc2c1` [Compound 20, 6-iodo-3-(1H-pyrrolo[2,3-c]pyridin-1-yl)isoquinoline] displayed a Ki of 0.75 nM.
Take `Oc1ccc2cnc(-n3ccc4ccncc43)cc2c1` [Compound 75]: the affinity corresponds to a Ki of 0.48 nM.
`C=Cc1cc(-n2ccc3ccncc32)ncc1C#CCF` [Compound 30, 1-(5-(3-fluoroprop-1-ynyl)-4-vinylpyridin-2-yl)-1H-pyrrolo[2,3-c]pyridine]: the Ki was found to be 2.44 nM.
In turn, `CCNc1cc(-c2ccc(-n3ccc4ccncc43)nc2)ccn1` [Compound 94] came in with a Ki of 1.4 nM.
Compound `Oc1cccc2cnc(-n3ccc4ccncc43)cc12` [Compound 49] had a Ki of 0.67 nM.
For the compound `FCCOc1cccc2cc(-n3ccc4ccncc43)ncc12` [Compound 67], the Ki came to 6.75 nM. This Ki is about 10-fold higher than that of the compound before.
`CN(CCF)c1ccc2cnc(-n3ccc4ccncc43)cc2c1` [Compound 14, N-(2-fluoroethyl)-N-methyl-3-(1H-pyrrolo[2,3-c]pyridin-1-yl)isoquinolin-6-amine] showed a Ki of 2.28 nM.
On the same count and under the same terms, the same measure for `Fc1cc(-c2ccc(-n3ccc4ccncc43)nc2)ccn1` [Compound 44, 1-(6′-fluoro-3,4′-bipyridin-6-yl)-1H-pyrrolo[2,3-c]pyridine]: 1.13 nM; for `CN(C)c1ccc(-c2ccc(-n3ccc4ccncc43)nc2)cn1` [Compound 95]: 0.96 nM; for `Fc1ccc2cnc(-n3ccc4ccncc43)nc2c1` [Compound 68]: 8.45 nM.
Compound `Fc1ccc2cnc(-n3ccc4ccncc43)cc2n1` [Compound 40, 2-fluoro-7-(1H-pyrrolo[2,3-c]pyridin-1-yl)-1,6-naphthyridine] yielded a Ki of 52.7 nM. Compared with the last compound, the Ki is about 6.2-fold higher.
Still for that read-out and setting: under `CC#Cc1ccc(-n2ccc3ccncc32)nc1` [Compound 52] stands 0.98 nM; under `Cn1cc(-c2ccc(-n3ccc4ccncc43)nc2)cn1` [Compound 58], 1.32 nM.
For `c1ccc2cc(-n3ccc4ccncc43)ncc2c1` [Compound 6, 3-(1H-pyrrolo[2,3-c]pyridin-1-yl)isoquinoline], the Ki is 0.54 nM.
On the same count and under the same terms, under `COc1ccc(NC(=O)c2ccc(-n3ccc4ccncc43)nc2)cc1` [Compound 34, N-(4-methoxyphenyl)-6-(1H-pyrrolo[2,3-c]pyridin-1-yl)nicotinamide] stands 3.83 nM; under `Cc1cc2cnc(-n3ccc4ccncc43)cc2o1` [Compound 23, 2-methyl-6-(1H-pyrrolo[2,3-c]pyridin-1-yl)furo[3,2-c]pyridine], 2.1 nM.
On the same count and under the same terms, under `Cn1ccc2cc(-n3ccc4ccncc43)ncc21` [Compound 19, 1′-methyl-1,5′-bi(1H-pyrrolo[2,3-c]pyridine)] stands 0.62 nM; under `OCCC1CCN(c2ccc(-n3ccc4ccncc43)nc2)CC1` [Compound 31-1, 2-(1-(6-(1H-pyrrolo[2,3-c]pyridin-1-yl)pyridin-3-yl)piperidin-4-yl)ethanol], 3.54 nM.
For `CN(C)c1ccc2cnc(-n3ccc4ccncc43)cc2c1` [Compound 61], affinity was put at a Ki of 2.23 nM. Against the preceding compound, the Ki is about 1.6-fold lower.
`Fc1cccc(-c2ccc(-n3ccc4ccncc43)nc2)n1` [Compound 91] had a Ki of 1.41 nM. This Ki lies about 1.6-fold lower than the previous one.
Still for that read-out and setting: under `CNc1cc(-c2ccc(-n3ccc4ccncc43)nc2)ccn1` [Compound 93] stands 0.53 nM; under `FCCOc1ccc2nc(-n3ccc4ccncc43)ncc2c1` [Compound 69], 9.33 nM.
Same read-out and setting: under `Cn1cnc(-c2ccc(-n3ccc4ccncc43)nc2)c1` [Compound 65] stands 3.42 nM; under `Fc1ccc(-c2ccc(-n3ccc4ccncc43)nc2)cn1` [Compound 60], 2.04 nM.
Same read-out and setting: under `FCC#Cc1ccc(-n2ccc3ccncc32)nc1` [Compound 7, 1-(5-(3-fluoroprop-1-ynyl)pyridin-2-yl)-1H-pyrrolo[2,3-c]pyridine] stands 1.65 nM; under `CNc1cccc(-c2ccc(-n3ccc4ccncc43)nc2)c1` [Compound 72], 0.76 nM; under `FCCNc1ccc(-n2ccc3ccncc32)nc1` [Compound 36, N-(2-fluoroethyl)-6-(1H-pyrrolo[2,3-c]pyridin-1-yl)pyridin-3-amine], 4.96 nM.
`C#Cc1cnc(-n2ccc3ccncc32)cc1C` [Compound 50] yielded an inhibition constant (Ki) of 0.75 nM.
The compound `OC1CCN(c2ccc(-n3ccc4ccncc43)nc2)CC1` [Compound 42, 1-(6-(1H-pyrrolo[2,3-c]pyridin-1-yl)pyridin-3-yl)piperidin-4-ol] registered an inhibitory constant (Ki) of 71.1 nM.
`Cc1cc(-n2ccc3ccncc32)ncc1OCCF` [Compound 32, 1-(5-(2-fluoroethoxy)-4-methylpyridin-2-yl)-1H-pyrrolo[2,3-c]pyridine] registered a Ki of 2.98 nM.
On the same count and under the same terms, the same measure for `c1ccc(-c2ccc(-n3ccc4ccncc43)nc2)nc1` [Compound 101]: 1.14 nM; for `Oc1cccc2cc(-n3ccc4ccncc43)ncc12` [Compound 56]: 1.16 nM.
`CC#Cc1cnc(-n2ccc3ccncc32)cc1F` [Compound 22, 1-(4-fluoro-5-(prop-1-ynyl)pyridin-2-yl)-1H-pyrrolo[2,3-c]pyridine] came in with a Ki of 1.43 nM.
In the case of `Oc1ccc2nc(-n3ccc4ccncc43)ncc2c1` [Compound 24-5, 2-(1H-pyrrolo[2,3-c]pyridin-1-yl)quinazolin-6-ol], the affinity, expressed as Ki, was 11.1 nM. Against the preceding compound, the Ki is about 7.8-fold higher.
As for `FC1CCN(c2ccc(-n3ccc4ccncc43)nc2)CC1` [Compound 43, 1-(5-(4-fluoropiperidin-1-yl)pyridin-2-yl)-1H-pyrrolo[2,3-c]pyridine], the affinity corresponds to a Ki of 10 nM.

Staying with this assay, now noted: Table 2, displacement of [^3H]-6 (0.25 nM).
For the compound `Nc1c(I)ccc2cnc(-n3ccc4ccncc43)cc12` [Compound 119], the Ki stood at 0.438 nM. This counts as sub-nanomolar.
For the compound `Nc1ccc2cnc(-n3ccc4ccncc43)cc2c1I` [Compound 118], affinity was put at a Ki of 24.5 nM.
`Nc1ccc(I)c2cc(-n3ccc4ccncc43)ncc12` [Compound 120] gave a Ki of 93.8 nM.
Same read-out and setting: under `Nc1cc(F)c2cnc(-n3ccc4ccncc43)cc2c1` [Compound 113] stands 0.784 nM.
For the compound `Nc1cc(I)cc2cc(-n3ccc4ccncc43)ncc12` [Compound 124], the affinity corresponds to a Ki of 1.07 nM.
Compound `Nc1cc(I)c2cnc(-n3ccc4ccncc43)cc2c1` [Compound 125] came in with a Ki of 18.6 nM. This Ki lies about 17-fold higher than the previous one.
As to `Nc1cc2cnc(-n3ccc4ccncc43)cc2cc1F` [Compound 105, 6-fluoro-3-(1H-pyrrolo[2,3-c]pyridin-1-yl)isoquinolin-7-amine], the Ki stood at 0.383 nM.
On the same count and under the same terms, the same measure for `Nc1cc2cc(-n3ccc4ccncc43)ncc2cc1I` [Compound 126]: 0.18 nM; for `COc1cc2ccn(-c3cc4cc(F)ccc4cn3)c2cn1` [Compound 130]: 4.03 nM.
`Nc1cc(I)c2cc(-n3ccc4ccncc43)ncc2c1` [Compound 128] showed a Ki of 6.21 nM.
With `Nc1ccc(F)c2cnc(-n3ccc4ccncc43)cc12` [Compound 116], the affinity, expressed as Ki, was 1.28 nM.
The same measure, in the same setting: under `Nc1cc(I)cc2cnc(-n3ccc4ccncc43)cc12` [Compound 127] stands 1.17 nM; under `Nc1c(F)ccc2cc(-n3ccc4ccncc43)ncc12` [Compound 110], 2.15 nM; under `Nc1ccc2cc(-n3ccc4ccncc43)ncc2c1I` [Compound 122], 1.77 nM.
On the same count and under the same terms, the same measure for `Nc1cccc2cnc(-n3ccc4cc(F)ncc43)cc12` [Compound 106]: 10000 nM.
Turning to `Nc1ccc2cnc(-n3ccc4ccncc43)cc2c1F` [Compound 111], affinity was put at a Ki of 1.09 nM. Compared with the last compound, the Ki is about 9200-fold lower.
